Experimental findings from patent USRE47388E1, “Agents for alleviating side effects” (TAIHO PHARMACEUTICAL CO., LTD., priority 1999, dated 2019) are described below.

Data set [1] is described as follows: Test 2: delaying effect on diarrhea occurrence caused by CPT-11. Format: in vivo, Donryu male rats. The conditions noted are these: CPT-11 60 mg/kg/day i.v. every day for five days; Compound 1 30 mg/kg/day oral concomitantly.
Method: Irinotecan hydrochloride (hereinafter referred to as “CPT-11”; KAMPTO Injection 100 mg/5 ml; product of Yakult Co., Ltd.) was diluted with saline so as to obtain a 6 mg/ml solution for administration at 60 mg/kg/day.
Compound 1 was suspended in a 0.5% hydroxypropylmethyl cellulose solution (hereinafter referred to as “0.5% HPMC”) so as to obtain a 3 mg/ml suspension, and the suspension was stirred by use of a stirrer for about 20 minutes at room temperature. The suspension was subjected to ultrasound treatment for 5 minutes while being cooled with ice, to thereby obtain a test solution containing Compound 1 for administration at 30 mg/kg/day.
Five-week-old Donryu male rats were divided into a control group and treatment groups so that the average body weights of the groups and the standard deviations (S.D.) of the groups were made to be as close to one another as possible. To each rat of the anti-tumor-agent treatment alone groups, the CPT-11 solution was intravenously administered once a day for five consecutive days at a daily dose of 1.0 ml per 100 g of body weight. […] The number of rats which had diarrhea at least once during the test period were counted as “diarrhea-rats”. The accumulated occurrence of diarrhea was calculated by use of the following equation: accumulated occurrence of diarrhea (%)=(the number of rats which had diarrhea/the total number of rats)×100
A further data set deals with Yoshida sarcoma. Put plainly: Test 3: action on anti-tumor action of cancer drug (tumor weight). Format: in vivo, Donryu male rats. The conditions noted are these: for Anti-tumor action / inhibition of tumor weight (in words): CDDP alone 6 mg/kg, Compound 1 for seven consecutive days with CDDP; for Tumor weight: day 8; for Inhibition ratio (%): tumor shrinkage vs control.

The nature of data set [2]: Test 3: suppression of body weight increase in tumor-bearing rats. Format: in vivo, Donryu male rats. The conditions noted are these: for Suppression of body weight (in words): CDDP alone 6 mg/kg, Compound 1 for seven consecutive days with CDDP; for Body weight change: day 0 to day 8; for Weight change ratio (%): ratio of suppression of body weight increase vs control.
Method: CDDP was suspended in saline so as to obtain a 0.6 mg/ml suspension, and the suspension was stirred by use of a stirrer for about 20 minutes at room temperature. The suspension was subjected to sonication for 5 minutes while being cooled with ice to thereby obtain a test solution containing CDDP for administration at 6.0 mg/kg/day.
Compound 1 was suspended in 0.5% HPMC so as to obtain a 3 mg/ml suspension, 10 mg/ml suspension, and 30 mg/ml suspension, respectively, and each suspension was stirred by use of a stirrer for about 20 minutes at room temperature. Each suspension was subjected to sonication for 5 minutes while being cooled with ice to thereby obtain test solutions containing Compound 1 for administration at 30 mg/kg/day, 100 mg/kg/day, and 300 mg/kg/day, respectively.
Five-week-old Donryu male rats were divided into a control group and treatment groups so that the average body weights of the groups and the standard deviations (S.D.) of the groups were made to be as close to one another as possible. Yoshida sarcoma (2×10^4 cells/0.1 ml/rat) was subcutaneously transplanted on the back of each rat, and administration was started the day following the day of transplant. To each rat of the CDDP treatment alone groups, the CDDP solution of 6.0 mg/kg was intravenously administered on the first administration day, and a 0.5% HPMC solution was orally administered for seven consecutive days at a daily dose of 1.0 ml per 100 g of body weight. […] To each rat of the control group, saline was intravenously administered on the first administration day in a dose of 1.0 ml per 100 g of body weight. Simultaneously, a 0.5% HPMC solution was orally administered once a day for five consecutive days at a daily dose of 1.0 ml per 100 g of body weight. In order to observe the action of Compound 1 per se, Compound-1-administration alone groups were provided for administration at 30 mg/kg/day, 100 mg/kg/day, and 300 mg/kg/day, respectively.
The rats were weighed on the day of transplantation (day 0) and the day following the day of final administration (day 8), and the suppression ratio of body weight increase was calculated by use of the following equation. Ratio of suppression of body weight increase (%)=(1−body weight changes of one treatment group/body weight changes of the control group)×100
Data set [3] is described as follows: Test 4: measurement of body weight change after FTD. The conditions noted are these: for Weight change ratio (%): body weight changes/body weight before administration x100, eight days, alone 100 mg/kg/day; for Weight change ratio (%) / Body weight change: oral, FTD 200 mg/kg/day, Compound 1 94 mg/kg/day in the mixture; for Body weight change: day 0 to day 9, eight consecutive days, Compound 1 alone 100 mg/kg/day. Format: in vivo, ICR mice.
Method: 5-Trifluoromethyl-2′-deoxyuridine (hereinafter abbreviated as FTD) was suspended in a 0.5% HPMC solution so as to obtain a 20 mg/ml suspension, and the suspension was stirred by use of a stirrer for about 20 minutes at room temperature.
FTD was suspended in a 0.5% HPMC solution so as to obtain a 20 mg/ml suspension. To the suspension, Compound 1 was added so as to attain a concentration of 9.4 mg/ml. The resultant mixture was stirred by use of a stirrer for about 20 minutes at room temperature, and then subjected to sonication under ice cooling, to thereby obtain a test solution containing FTD and Compound 1 (mol ratio 1:0.5).
Compound 1 was suspended in a 0.5% HPMC solution so as to obtain a 10 mg/ml suspension, and the suspension was stirred by use of a stirrer for about 20 minutes at room temperature. The suspension was subjected to sonication for 5 minutes under ice cooling, to thereby obtain a test solution containing Compound 1 for administration of 100 mg/kg/day.
Eight-week-old male ICR rats were divided into a control group and treatment groups so that the average body weights of the groups and the standard deviations (S.D.) of the groups were made to be as close to one another as possible. To each rat of the FTD treatment alone groups, the FTD solution of 200 mg/kg/day (1.0 ml) was orally administered once a day for eight consecutive days (per 100 g body weight of each rat). To each rat of combination-administration treatment groups, a mixture solution of FTD and Compound 1 was perorally administered once a day for eight consecutive days at a daily dose of 1.0 ml per 100 g of body weight. To each rat of the control group, a 0.5% HPMC solution was perorally administered for eight consecutive days. In order to observe the action of Compound 1 per se, Compound 1-administration alone groups were provided for administration of 100 mg/kg/day.
The rats were weighed at the previous day of the first administration (day 0) and the following day of the day of final administration (day 9), and the ratio of body weight ratio was calculated by use of the following equation. Ratio of body weight change (%)=body weight changes/body weight before administration×100

Another data set deals with IL-6. Put plainly: Test 4: IL-6 level in the small intestine and the large intestine (ELISA). Format: in vivo, ICR mice. The conditions noted are these: for Level of inflammatory cytokine IL-6 in the small intestine and the large intestine (in words): FTD 200 mg/kg/day eight consecutive days vs control, Compound 1 94 mg/kg incorporated; for Large intestine IL-6 / Small intestine IL-6: day 9, oral, eight days, FTD 200 mg/kg/day, Compound 1 94 mg/kg/day in the mixture, alone 100 mg/kg/day. The procedure:
(§1) To each rat of the control group, a 0.5% HPMC solution was perorally administered for eight consecutive days. In order to observe the action of Compound 1 per se, Compound 1-administration alone groups were provided for administration of 100 mg/kg/day. […] Immediately after the collected region were washed with saline, the portions were frozen to preserve at −80° C. Each sample preparation was diluted with a 0.05M phosphate buffer (pH 7.4) so as to attain a tissue concentration of approximately 10% (W/V), and the resultant mixture was homogenized, subjected to sonication, and subjected twice to freeze-thawing. The thus-treated matter was centrifuged at 12,000 g for 15 minutes, and the supernatant was collected to serve as a sample for cytokine measurement. Cytokines, i.e., IL-1β and mouse IL-6 were measured by use of an ELISA kit for mouse (product of Endogen, Inc.), and the results are shown in Table 4. Test results were statistically analyzed in accordance with the Dunnett method ((*; p<0.05) and (**; p<0.01)).
(In an ELISA, binding on a coated surface is turned into a signal by an enzyme label.)

In the next data set the test system is IL-1β. Nature of the data set: Test 4: IL-1β level in the large intestine (ELISA). Format: in vivo, ICR mice. As to conditions: for Level of IL-1β in the large intestine (in words): FTD 200 mg/kg/day eight consecutive days vs control, Compound 1 94 mg/kg incorporated; for Large intestine IL-1β: day 9, oral, eight days, FTD 200 mg/kg/day, Compound 1 94 mg/kg/day in the mixture, alone 100 mg/kg/day. The procedure:
as §1

The nature of data set [4]: Test 1: alleviating effect on suppression of body weight increase caused by 5-FU or CDDP.
Method: 5-Fluorouracil (hereinafter referred to as “5-FU”) was suspended in saline so as to obtain a 2.0 mg/ml suspension, and the suspension was stirred by use of a stirrer for about 20 minutes at room temperature. The suspension was treated with sonication for 5 minutes while being cooled with ice, to thereby obtain a test solution containing 5-FU for administration at 20 mg/kg/day.
Cisplatin (hereinafter referred to as “CDDP”) was suspended in saline so as to obtain a 0.1 mg/ml suspension, and the suspension was stirred by use of a stirrer for about 20 minutes at room temperature. The suspension was treated with sonication for 5 minutes while being cooled with ice, to thereby obtain a test solution containing CDDP for administration at 1.0 mg/kg/day.
Compound 1 was suspended in water so as to obtain a 10 mg/ml suspension, and the suspension was stirred by use of a stirrer for about 20 minutes at room temperature. The suspension was treated with sonication for 5 minutes while being cooled with ice, to thereby obtain a test solution containing Compound 1 for administration at 100 mg/kg/day.
Five-week-old Donryu male rats were divided into a control group and treatment groups so that the average body weights of the groups and the standard deviations (S.D.) of the groups were made to be as close to one another as possible. To each rat of the anti-tumor-agent treatment alone groups, the 5-FU solution or the CDDP solution was intravenously administered once a day for four consecutive days at a daily dose of 1.0 ml per 100 g of body weight. Simultaneously, water was orally administered once a day for four consecutive days at a daily dose of 1.0 ml per 100 g of body weight. To each rat of the combination-administration treatment groups, the 5-FU solution or the CDDP solution was intravenously administered once a day for four consecutive days at a daily dose of 1.0 ml per 100 g of body weight. Simultaneously, to each rat of the combination-administration groups, the solution of Compound 1 was orally administered once a day for four consecutive days at a daily dose of 1.0 ml per 100 g of body weight. To each rat of the control group, saline was intravenously administered once a day for four consecutive days at a daily dose of 1.0 ml per 100 g of body weight. Simultaneously, water was orally administered once a day for four consecutive days at a daily dose of 1.0 ml per 100 g of body weight.
The rats were weighed prior to initiation of administration (day 1) and on the day following the day of final administration (day 5), and the ratio of suppression of body weight increase was calculated by use of the following equation.
Test results were statistically analyzed using the Student's “T” test. […]
Setting [5] is: Compound 1 30 mg/kg/day oral 7 days, with CDDP 6.0 mg/kg i.v. day 1 or saline.
Where [6] appears, read: Compound 1 100 mg/kg/day oral 7 days, with CDDP 6.0 mg/kg i.v. day 1 or saline.
Setting [7] is: Compound 1 300 mg/kg/day oral 7 days, with CDDP 6.0 mg/kg i.v. day 1 or saline.
[8] abbreviates: CDDP 6.0 mg/kg i.v. on first day + vehicle oral 7 days.

Structures are written as SMILES. Counter-ions that a name gives are not always drawn. Marks after values point to notes of the source that are not given here.

For the molecule `Cl.N=C1CCCN1Cc1[nH]c(=O)[nH]c(=O)c1Cl` [Compound 1, 5-Chloro-6-(2-iminopyrrolidin-1-yl)methyl-2,4-(1H,3H)-pyrimidinedione Hydrochloride], the “Accumulated occurrence of diarrhea (FIG. 1, in words)” value in data set [1] was “delayed”. For the same molecule, the “Anti-tumor action / inhibition of tumor weight (in words)” value with Yoshida sarcoma was “without affecting the anti-tumor action”. In addition, in the data set on Yoshida sarcoma (setting [5]), the “Tumor weight” value worked out at 0.787 ± 0.307 g and the “Inhibition ratio (%)” value is reported as −18.1%. Moreover, in the data set with Yoshida sarcoma (setting [6]), the “Tumor weight” value is listed as 0.816 ± 0.329 g and the “Inhibition ratio (%)” value is −22.4%. Further, in the data set with Yoshida sarcoma (setting [7]), the “Tumor weight” value came out at 0.829 ± 0.281 g and the “Inhibition ratio (%)” value is recorded as −24.5%. Moreover, in data set [2], the “Suppression of body weight (in words)” value is “suppression of body weight was alleviated”. Further, in data set [2] (setting [5]), the “Body weight change” value came to 29.3 ± 10.2 g and the “Weight change ratio (%)” value is given as −13.1%. In addition, in data set [2] (setting [6]), the “Body weight change” value came out at 23.9 ± 6.6 g and the “Weight change ratio (%)” value is 7.7%. In data set [2] (setting [7]), the “Body weight change” value worked out at 28.1 ± 6.0 g and the “Weight change ratio (%)” value is reported as −8.5%. Further, the “Decrease in the body weight caused by FTD (in words)” value in data set [3] (Compound 1 94 mg/kg/day incorporated with FTD 200 mg/kg/day) is “protected”. In addition, in data set [3], the “Weight change ratio (%)” value came to 6.8% and the “Body weight change” value was determined as 2.4 ± 1.1 g. Further, in the data set with IL-6, the “Level of inflammatory cytokine IL-6 in the small intestine and the large intestine (in words)” value is reported as “inhibited”; the “Large intestine IL-6” value was 10.7 ± 4.7 pg/mg protein; the “Small intestine IL-6” value came out at 19.8 ± 9.9 pg/mg protein. For the same molecule, in the data set with IL-1β, the “Level of IL-1β in the large intestine (in words)” value is “inhibited” and the “Large intestine IL-1β” value amounted to 23.7 ± 4.6 pg/mg protein. Besides, the “Occurrence of diarrhea, combination-administration groups vs anti-tumor-agent-administration alone groups” value in data set [4] (Compound 1 100 mg/kg/day with 5-FU 20 mg/kg/day or CDDP 1.0 mg/kg/day) is given as “lower”.
For `O=c1[nH]cc(F)c(=O)[nH]1` [Compound 5-FU, 5-Fluorouracil], the “Suppression of body weight increase (in words)” value in data set [4] (5-FU 20 mg/kg/day or CDDP 1.0 mg/kg/day for 4 consecutive days, Compound 1 100 mg/kg/day in combination with the anti-tumor agent) is listed as “Suppression of body weight increase was confirmed”. Also, the “Body weight change” value in data set [4] (day 1 to day 5, 5-FU 20 mg/kg/day or CDDP 1.0 mg/kg/day i.v., Compound 1 100 mg/kg/day oral, four consecutive days, mean ± S.D.) is 15.6 ± 3.6 g. In addition, the “Suppression ratio (%) (ratio of suppression of body weight increase)” value in data set [4] (vs control group, 5-FU 20 mg/kg/day or CDDP 1.0 mg/kg/day i.v., Compound 1 100 mg/kg/day oral, four consecutive days) is 46.7%.
Consider `[NH2][Pt]([NH2])([Cl])[Cl]` [CDDP, Cisplatin, reference compound], for which the “Tumor weight” value in the data set on Yoshida sarcoma (CDDP 6.0 mg/kg i.v. on first day + 0.5% HPMC vehicle oral 7 days) worked out at 0.162 ± 0.155 g. Further, the “Anti-tumor action / inhibition of tumor weight (in words)” value with Yoshida sarcoma is “Significant inhibition of tumor weight”. Moreover, the “Inhibition ratio (%)” value with Yoshida sarcoma (setting [8]) was found to be 75.7%. In data set [2], the “Suppression of body weight (in words)” value is listed as “Significant inhibition”. In data set [2] (setting [8]), the “Body weight change” value was -19.4 ± 8.6 g and the “Weight change ratio (%)” value worked out at 174.9%.
Consider `CCc1c2c(nc3ccc(OC(=O)N4CCC(N5CCCCC5)CC4)cc13)-c1cc3c(c(=O)n1C2)COC(=O)[C@]3(O)CC` [CPT-11, Irinotecan hydrochloride, reference compound], for which, in data set [1], the “Accumulated occurrence of diarrhea (FIG. 1, in words)” value is given as “diarrhea occurred after the third administration day”.
As for `O=c1[nH]c(=O)n([C@H]2C[C@H](O)[C@@H](CO)O2)cc1C(F)(F)F` [FTD, 5-Trifluoromethyl-2′-deoxyuridine, reference compound], in data set [3], the “Weight change ratio (%)” value is on record as −17.6% and the “Body weight change” value is -1.6 ± 4.7 g. Also, the “Decrease ratio of the body weight at the following day of the final administration to that before administration” value in data set [3] (solo FTD 200 mg/kg daily for eight consecutive days) is reported as “approximately 18%”. Besides, in the data set on IL-6, the “Level of inflammatory cytokine IL-6 in the small intestine and the large intestine (in words)” value is “high level”; the “Large intestine IL-6” value is listed as 118.0 ± 47.6** pg/mg protein; the “Small intestine IL-6” value is on record as 95.5 ± 19.2** pg/mg protein. Moreover, in the data set with IL-1β, the “Level of IL-1β in the large intestine (in words)” value is “elevated” and the “Large intestine IL-1β” value is recorded as 77.3 ± 42.1** pg/mg protein.
